The values that follow are results of earlier work, collected in US20240299434A1, “URIDINE TRIACETATE AMORPHOUS FORMULATION” (PHARMA CINQ. LLC, priority 2021, published 2024).

The conditions of data set [1]: humans.
For data set [2] the following is noted: mice.

Read-outs that look alike come from different tables or passages of the source.

As for `CC(=O)OC[C@H]1O[C@@H](n2ccc(=O)[nH]c2=O)[C@H](OC(C)=O)[C@@H]1OC(C)=O` [Uridine triacetate, 2′,3′,5′-Tri-O-acetyluridine], the solubility in water result is reported as “approximately 10 milligrams per milliliter”.

Consider `O=c1ccn([C@@H]2O[C@H](CO)[C@@H](O)[C@H]2O)c(=O)[nH]1` [uridine], for which the oral bioavailability entry in data set [1] and in data set [2] was “approximately 7%” each time.
